Several values for one entry are separate records, joined by “and”; a condition that tells them apart may be missing. Equal values may be shown once.
Tests used:
normalen Ziegen = experiment: Atrial effective refractory period (AERP) in normal goats; format: in vivo; settings: for atriale effektive Refraktärzeit (AERP): Nicht remodelliert, cycle length 400 ms, mean ± SD, Beispiel 1 3 mg/kg/h; for Verlängerung der AERP: normal atria
Procedure: (§1) An chronisch instrumentierten Ziegen wurden die elektrophysiologischen Effekte der Verbindung des Beispiels 1, des IKr-Kanalblockers Ibutilide und der Kombination von der Verbindung des Beispiels 1 und Ibutilide untersucht.
(§2) Nach Infusion von 0,9% Kochsalzlösung über 30 min zur Kontrolle wurden die Substanzen lbutilide und die Verbindung des Beispiels 1 zum einen in Monotherapie und zum anderen in Kombination der beiden Wirkstoffe an 7 normalen Ziegen (d. h. ohne induziertes Vorhofflimmem) durch intravenöse Infusion verabreicht und die atriale effektive Refraktärzeit (AERP) bestimmt. Bei der Monotherapie wurde über die Zeitdauer von 60 Minuten 0.12 mg Ibutilide pro kg Körpergewicht verabreicht (0.002 mg pro kg pro Minute). In der Kombination wurden über die Dauer von 120 Minuten 6 mg der Verbindung des Beispiels 1 pro kg Körpergewicht verabreicht (3mg pro kg pro Stunde), wobei nach 60 Minuten zusätzlich 0.12 mg Ibutilide pro kg pro Stunde für die Dauer von 60 Minuten verabreicht wurden. Die Infusion der Verbindung des Beispiels 1 wurde insgesamt über 120 min durchgeführt. Kontrollmessungen der atrialen effektiven Refraktärzeit wurden einmal vor Gabe des Ibutilides (Kontrolle 1) und einmal vor Gabe der Verbindung des Beispiels 1 (Kontrolle 2) durchgeführt.
Die Kombination beider Substanzen wurde getestet, indem wie oben beschrieben nach der Infusion der Verbindung des Beispiels 1 über eine Stunde zusätzlich Ibutilide verabreicht wurde.
as §2, with “Ein analoges Infusionsschema wurde an 5 weiteren Tieren mit Dofetilide anstelle von Ibutilide durchgeführt. Nach” for “Nach”, “Dofetilide” for “lbutilide”, “5” for “7”, “Vorhofflimmern)” for “Vorhofflimmem)”, “Dofetilide” for “Ibutilide”, “Dofetilids” for “Ibutilides”

[1] = test system: Ziegen, mit remodellierten Vorhöfen; experiment: Atrial effective refractory period (AERP) in goats with electrically remodelled atria; format: in vivo; settings: for atriale effektive Refraktärzeit (AERP): Remodelliert (1-4 days induced AF), cycle length 400 ms, mean ± SD, Beispiel 1 3 mg/kg/h; for Verlängerung des AERP: remodelled atria
Procedure: as §1, §2
(§3) Das gleiche Infusionsschema wurde an denselben Tieren wiederholt, nachdem elektrische Remodellierung durch induziertes Vorhofflimmern von 1 bis 4 Tagen erzeugt wurde.
as §2, with “Ein analoges Infusionsschema wurde an 5 weiteren Tieren mit Dofetilide anstelle von Ibutilide durchgeführt. Nach” for “Nach”, “Dofetilide” for “lbutilide”, “5” for “7”, “Vorhofflimmern)” for “Vorhofflimmem)”, “Dofetilide” for “Ibutilide”, “Dofetilids” for “Ibutilides”
as §3

[2] = test system: persistierendem Vorhofflimmern (AF); experiment: Cardioversion in chronically fibrillating goats: time points of cardioversion (single goats); format: in vivo, Ziegen
Procedure: (§4) Es wurden Versuche an zwei Ziegen durchgeführt, die sich in persistierendem Vorhofflimmem von mehr als 45 Tagen befanden. Nach Infusion von 0,9% Kochsalzlösung über 30 min zur Kontrolle, wurde einer Ziege die Verbindung des Beispiels 1 der Reihe nach (jeweils im Abstand von Tagen) in Mengen von jeweils 0.0 (Kontrolle), 0.1, 0.3, 1, 3 und 10 mg pro kg Körpergewicht und pro Stunde über eine Dauer von 90 Minuten infundiert, wobei nach 60 Minuten zusätzlich 2 mg Ibutilide pro Kilogramm Körpergewicht in einem Zeitintervall von 30 min verabreicht wurde.
(§5) Analog wurden einer zweiten Ziege nach 60 Minuten Verabreichung verschiedener Mengen der Verbindung des Beispiels 1 (jeweils 0.0 (Kontrolle), 0.1, 0.3, 1, 3 und 10 mg pro kg Körpergewicht und pro Stunde jeweils im Abstand von Tagen) zusätzlich 10 µg Dofetilide pro kg Körpergewicht in einem Zeitintervall von 30 Minuten anstelle von Ibutilide verabreicht.
Die Zeitpunkte der Kardioversion von persistierendem Vorhofflimmem (AF) durch die Gabe der Verbindung des Beispiels 1 mit Ibutilide bzw. der Verbindung des Beispiels 1 mit Dofetilide sind in den Tabellen 3 und 4 bei verschiedenen Dosierungen der Verbindung des Beispiels 1 (0.0, 0.1, 0.3, 1,3 und 10 mg pro kg Körpergewicht und pro Stunde) dargestellt. Tabelle 3: Auftreten der Kardioversion von persistierendem Vorhofflimmern (AF) nach jeweiliger Reinduktion des Vorhofflimmerns bei verschiedenen Dosierungen der Verbindung des Beispiels 1 und bei zusätzlicher Infusion von Ibutilide nach 60 Minuten (Zeitpunkte in Minuten gemessen ab Beginn der Infusion der Verbindung des Beispiels 1)

[3] = test system: persistierendem Vorhofflimmern (AF); experiment: Atrial fibrillation cycle length (AFCL) in goats with persistent atrial fibrillation; format: in vivo, Ziegen
Procedure: as §4, §5
In Fig.1 und Fig.2 sind die Messungen der Zykluslänge des atrialen Flimmerns (AFCL) nach kombinierter Gabe von Ibutilide und der Verbindung des Beispiels 1 bzw. nach kombinierter Gabe von Dofetilide und der Verbindung des Beispiels 1 dargestellt. Die Messungen des AFCL und der Kardioversion erfolgten nebeneinander.
In den Zeichnungen wurden folgende Beschriftungen und Kennzeichnungen vorgenommen: • Fig.1: Messung der Zykluslänge des atrialen Flimmerns (AFCL) nach kombinierter Gabe von Ibutilide und der Verbindung des Beispiels 1 Y-Achse: AFCL in ms X-Achse: Zeit in Minuten Die Verbindung des Beispiels 1 wurde in folgenden Mengen infundiert: • 10 mg/kg/h • 3 mg/kg/h • 1 mg/kg/h • 0.3 mg/kg/h • 0.1 mg/kg/h • 0.0 mg/kg/h (Kontrolle) • Fig.2: Messung der Zykluslänge des atrialen Flimmerns (AFCL) nach kombinierter Gabe von Dofetilide und der Verbindung des Beispiels 1 Y-Achse: AFCL in ms X-Achse: Zeit in Minuten Die Verbindung des Beispiels 1 wurde in folgenden Mengen infundiert: • 10 mg/kg/h • 3 mg/kg/h • 1 mg/kg/h • 0.3 mg/kg/h • 0.1 mg/kg/h • 0.0 mg/kg/h (Kontrolle)

[4] = test system: Ziegen mit persistierendem Vorhofflimmern (AF); experiment: Efficiency of cardioversion in up to eight goats with persistent atrial fibrillation; format: in vivo
Procedure: In weiteren Versuchen wurde die Effizienz der Kardioversion bei verschiedenen Dosierungen der Verbindung des Beispiels 1 und bei zusätzlicher Infusion von Ibutilide (2 mg/kg) bzw. Dofetilide (10 µg/kg) an mehreren Ziegen getestet (Tabelle 5).
as §4, with “bis zu acht” for “zwei”, “Vorhofflimmern” for “Vorhofflimmem von mehr als 45 Tagen”, “Kontrolle wurden bis zu acht Ziegen” for “Kontrolle, wurde einer Ziege”, “1” for “1 der Reihe nach”
as §5, with “an bis zu acht Ziegen” for “einer zweiten Ziege”, “1,3” for “1, 3”
Die Effizienz der Kardioversion von persistierendem Vorhofflimmern (AF) durch die Gabe der Verbindung des Beispiels 1 mit ibutilide bzw. der Verbindung des Beispiels 1 mit Dofetilide sind in der Tabelle 5 bei verschiedenen Dosierungen der Verbindung des Beispiels 1 (0.0, 0.1, 0.3, 1, 3 und 10 mg pro kg Körpergewicht und pro Stunde) dargestellt. Angegeben sind die Anzahl der Ziegen, bei denen Kardioversion auftrat, im Vergleich zu der Anzahl der Ziegen, mit denen der Versuch durchgeführt wurde, und daraus errechnet die Effizienz der Kardioversion in Prozent. Jede Terminierung des persistenten Vorhofflimmerns während einer jeweiligen Infusionsperiode wurde als eine erfolgreiche Kardioversion angesehen. […] Tabelle 5: Effizienz der Kardioversion in Prozent bei Ziegen mit persistierendem Vorhofflimmern (AF) bei verschiedenen Dosierungen der Verbindung des Beispiels 1 und bei zusätzlicher Infusion von Ibutilide bzw. Dofetilide. In Klammern angegeben ist jeweils das Verhältnis Ziegen, bei denen Kardioversion auftrat, zu Ziegen, die bei dem jeweiligen Versuch eingesetzt wurden.

[5] = 5 goats, i.v. infusion: Dofetilide 0.12 mg/kg over 60 min
[6] = 7 goats, i.v. infusion: Ibutilide 0.12 mg/kg over 60 min
[7] = n=5, versus control before dosing (151 ms and 158 ms), Dofetilide study
[8] = n=7, versus control before dosing (159 ms and 162 ms), Ibutilide study
[9] = n=5, versus control (94 ms and 93 ms), Dofetilide study
[10] = n=7, versus control (93 ms and 97 ms), Ibutilide study
[11] = Fig.1 goat, Ibutilide 2 mg/kg per 30 min given after 60 min (alone: from 94 ms baseline), Beispiel 1 3 mg/kg/h
[12] = Beispiel 1 dose 0,1, alone or + Ibutilide 2mg/kg or + Dofetilide 10µg/kg
[13] = Beispiel 1 dose 0,3, alone or + Ibutilide 2mg/kg or + Dofetilide 10µg/kg
[14] = Beispiel 1 dose 1, alone or + Ibutilide 2mg/kg or + Dofetilide 10µg/kg
[15] = Beispiel 1 dose 10, alone or + Ibutilide 2mg/kg or + Dofetilide 10µg/kg
[16] = Beispiel 1 dose 0, Ibutilide 2mg/kg or Dofetilide 10µg/kg alone

Row | SMILES | atriale effektive Refraktärzeit (AERP) (normalen Ziegen; [5]) [ms] | atriale effektive Refraktärzeit (AERP) (normalen Ziegen; [6]) [ms] | Verlängerung der AERP (normalen Ziegen; [7]) [ms] | Verlängerung der AERP (normalen Ziegen; [8]) [ms] | atriale effektive Refraktärzeit (AERP) [1, 5] [ms] | atriale effektive Refraktärzeit (AERP) [1, 6] [ms] | Verlängerung des AERP [1, 9] [ms] | Verlängerung des AERP [1, 10] [ms] | AFCL [3, 11] [ms] | Effizienz der Cardioversion [4, 16] [%] | Verhältnis Ziegen, bei denen Kardioversion auftrat, zu Ziegen, die eingesetzt wurden [4, 16] | also measured
1 | COc1ccc(CC(=O)NCc2ccccc2-c2ccccc2C(=O)NCCc2cccnc2)cc1 [Beispiel 1, 2'-{[2-(4-Methoxy-phenyl)-acetylamino]-methyl}-biphenyl-2-carbonsäure-(2-pyridin-3-yl-ethyl)-amid] | 209 ± 29 | 206 ± 26 | 51 | 44 | 164 ± 19 | 160 ± 16 | 71 | 63 | 147 |  |  | Zeitpunkte der Kardioversion ([2]; Beispiel 1 10mg/kg/h, time points before the start of Ibutilide at 60 min (monotherapy), one goat, listed as Verbindung des Beispiels 1, 10 mg/kg): 42.00 Minuten and 50.00 Minuten; Kardioversion ([2]; Beispiel 1 alone at 0.1, 0.3, 1, 3 or 10 mg/kg/h, goat of Tabelle 4): nicht zur Kardioversion; Kardioversion ([2]; monotherapy, only at 10 mg/kg/h, goat of Tabelle 3): möglich, eine Kardioversion herbeizuführen; AFCL ([3]; Fig.2 goat, Beispiel 1 alone at 0.1, 0.3, 1, 3 or 10 mg/kg/h): dosisabhängigen Zunahme der AFCL; Effizienz der Cardioversion [4, 12]: 17%; Verhältnis Ziegen, bei denen Kardioversion auftrat, zu Ziegen, die eingesetzt wurden [4, 12]: (1/6); Effizienz der Cardioversion [4, 13]: 17%; Verhältnis Ziegen, bei denen Kardioversion auftrat, zu Ziegen, die eingesetzt wurden [4, 13]: (1/6); Effizienz der Cardioversion [4, 14]: 13%; Verhältnis Ziegen, bei denen Kardioversion auftrat, zu Ziegen, die eingesetzt wurden [4, 14]: (1/8); Effizienz der Cardioversion ([4]; Beispiel 1 dose 3, alone or + Ibutilide 2mg/kg or + Dofetilide 10µg/kg): 38%; Verhältnis Ziegen, bei denen Kardioversion auftrat, zu Ziegen, die eingesetzt wurden ([4]; Beispiel 1 dose 3, alone or + Ibutilide 2mg/kg or + Dofetilide 10µg/kg, listed as Verbindung des Beispiels 1): 3 von 8 and (3/8); Effizienz der Cardioversion [4, 15]: 63%; Verhältnis Ziegen, bei denen Kardioversion auftrat, zu Ziegen, die eingesetzt wurden [4, 15]: (5/8)
2 | CN(CCOc1ccc(NS(C)(=O)=O)cc1)CCc1ccc(NS(C)(=O)=O)cc1 [Dofetilide, reference compound] | 172 ± 11 |  | 21 |  | 101 ± 19 |  | 7 |  |  | 25 | (1/4) | Kardioversion ([2]; 10 µg/kg Dofetilide over 30 min without Beispiel 1, goat of Tabelle 4): eine Kardioversion nicht eintritt; Anstieg der AFCL ([3]; Fig.2 goat, 10 µg/kg Dofetilide over 30 min without Beispiel 1): 14 ms; AFCL ([3]; Fig.2 goat, 10 µg/kg Dofetilide over 30 min without Beispiel 1, from 92 ms baseline): 106 ms
3 | CCCCCCCN(CC)CCCC(O)c1ccc(NS(C)(=O)=O)cc1 (stereo not drawn) [Ibutilide, reference compound] |  | 185 ± 23 |  | 26 |  | 98 ± 20 |  | 5 | 101 | 29 | (2/7) | 

Reference: patent EP1605976B1, “PHENYLCARBOXYL ACID AMIDES AND IK r CHANNEL INHIBITORS COMBINATION AND THE USE THEREOF FOR TREATING ATRIAL [sequence]” (Sanofi-Aventis Deutschland GmbH, priority 2003, dated 2004)
